Experimental data taken from patent US10559456B2, “Systems and methods for analyzing an extracted sample using an immiscible extraction solvent” (priority 2014, dated 2020).
“And” between values parts separate entries of the source, which are not always exact repeats. Equal entries are not always repeated.

How the values were obtained:
[1] = Log P=log([solute]octanol/[solute]water), un-ionized compound; cited from earlier work
[2] = tested on: cholinesterase (ChE); conditions: human whole blood diluted 10 times, acetylthiocholine 1.8 mg/mL, 5 min incubation in capillary, room temperature
Description: For testing of a particular solvent, 5 μL blood sample (diluted) was injected into the capillary with the extraction solvent plug immediately after the mixing the acetylthiocholine into the blood. After the 5 min incubation in capillary, the TCh/ATch ratio was measured using SFME nanoESI MS. For the control, 5 min after the mixing acetylthiocholine into the diluted blood, the sample was taken and analyzed immediately using SFME nanoESI MS with ethyl acetate as the extraction phase. Spray voltage of 1.5 kV was used for nanoESI.
SFME-nanoESI was applied for monitoring the enzymatic activity of cholinesterase (ChE) in whole blood samples. […] The blood sample was diluted 10 times to slow down the reaction rate as well as to facilitate the slug flows for SFME. The substrate acetylthiocholine iodine was added into the diluted blood sample at a concentration of 1.8 mg/mL, and then 5 μL sample was taken immediately and injected into the capillary with 5 μL extraction phase. The capillary with the sample and the extraction solvent was left in room temperature 25° C. for incubation. The SFME-nanoESI could be performed repeatedly on the same sample and the ratio of the substrate ATCh and the reaction product TCh could be monitored as a function of time to characterize the enzymatic activity of the ChE. […]

Row | Structure (SMILES) | Partition coefficient Log P [1] | reduction of ChE activity due to contact with extraction solvent [2]
1 | CN1[C@H]2CC[C@@H]1[C@@H](C(=O)O)[C@@H](OC(=O)c1ccccc1)C2 [benzoylecgonine] | −0.6 and −0.59 | –
2 | ClC(Cl)Cl [chloroform] | – | more than 60%
3 | CN[C@@H](C)Cc1ccccc1 [methamphetamine] | 2.1 | –
4 | N[C@@H](Cc1ccccc1)C(=O)O [phenylalanine] | −1.38 | –
5 | CCOC(C)=O [ethyl acetate] | – | minimal
